Assay [1] concerns the target T1, GPIIb-IIIa (Homo sapiens, UniProt P05106+P08514).
T1 construct: Purified platelet GPIIb-IIIa receptor was prepared as described by Fitzgerald; from tissue; host or cells: platelets
T1 sequence (P08514 32-887 limits assumed): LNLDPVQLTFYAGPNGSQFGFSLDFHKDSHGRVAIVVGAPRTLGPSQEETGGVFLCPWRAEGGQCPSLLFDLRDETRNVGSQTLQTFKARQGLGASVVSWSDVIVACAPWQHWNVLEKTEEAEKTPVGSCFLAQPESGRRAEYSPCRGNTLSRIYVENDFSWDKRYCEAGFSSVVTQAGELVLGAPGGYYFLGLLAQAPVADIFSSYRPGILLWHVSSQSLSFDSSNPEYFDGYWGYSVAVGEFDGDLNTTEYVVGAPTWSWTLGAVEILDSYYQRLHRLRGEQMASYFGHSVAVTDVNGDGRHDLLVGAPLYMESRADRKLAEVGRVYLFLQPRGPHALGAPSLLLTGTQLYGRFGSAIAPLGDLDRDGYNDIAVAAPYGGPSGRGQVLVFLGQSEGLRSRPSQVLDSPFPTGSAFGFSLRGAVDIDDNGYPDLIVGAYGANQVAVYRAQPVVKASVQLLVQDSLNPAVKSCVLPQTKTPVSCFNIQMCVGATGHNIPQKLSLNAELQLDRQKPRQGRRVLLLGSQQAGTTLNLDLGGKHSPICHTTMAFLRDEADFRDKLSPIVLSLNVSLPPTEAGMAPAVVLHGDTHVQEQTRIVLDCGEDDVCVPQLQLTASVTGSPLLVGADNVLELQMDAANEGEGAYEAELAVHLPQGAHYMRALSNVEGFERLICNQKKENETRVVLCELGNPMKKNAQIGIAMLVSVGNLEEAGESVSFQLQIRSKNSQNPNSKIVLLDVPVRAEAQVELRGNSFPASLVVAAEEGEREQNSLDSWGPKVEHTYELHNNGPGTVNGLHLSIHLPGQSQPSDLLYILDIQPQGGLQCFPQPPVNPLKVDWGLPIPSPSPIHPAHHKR
T1 sequence (P05106 27-788): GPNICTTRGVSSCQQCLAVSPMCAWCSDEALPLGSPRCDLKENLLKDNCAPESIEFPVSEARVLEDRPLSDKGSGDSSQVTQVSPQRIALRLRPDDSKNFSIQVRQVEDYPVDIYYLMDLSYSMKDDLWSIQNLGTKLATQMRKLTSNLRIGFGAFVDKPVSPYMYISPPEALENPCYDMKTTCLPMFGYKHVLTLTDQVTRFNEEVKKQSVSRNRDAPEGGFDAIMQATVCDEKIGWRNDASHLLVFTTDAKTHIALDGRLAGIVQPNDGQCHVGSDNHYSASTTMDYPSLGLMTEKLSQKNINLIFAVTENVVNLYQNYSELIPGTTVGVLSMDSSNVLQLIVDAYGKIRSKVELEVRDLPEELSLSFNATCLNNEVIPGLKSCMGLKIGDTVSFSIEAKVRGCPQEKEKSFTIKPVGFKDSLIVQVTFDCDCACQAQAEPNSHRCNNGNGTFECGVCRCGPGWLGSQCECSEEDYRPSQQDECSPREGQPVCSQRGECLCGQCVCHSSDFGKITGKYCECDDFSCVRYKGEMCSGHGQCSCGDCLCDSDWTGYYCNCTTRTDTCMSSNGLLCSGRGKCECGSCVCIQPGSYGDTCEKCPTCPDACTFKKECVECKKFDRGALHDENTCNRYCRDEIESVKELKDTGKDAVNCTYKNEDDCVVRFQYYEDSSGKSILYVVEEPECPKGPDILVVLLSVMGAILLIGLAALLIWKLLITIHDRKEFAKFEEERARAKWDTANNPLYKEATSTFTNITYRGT
As to the kind of experiment: ELISA IIb-IIIa assay (fibrinogen binding to immobilized GPIIb-IIIa). The conditions noted are these: purified platelet GPIIb-IIIa receptor coated on ELISA plates; biotin-labeled fibrinogen 10 nM, 3 hours at 25° C. Here is the method: In the following assay, GPIIb-IIIa is prepared in purified form, by a method such as described by Fitzgerald, L. A., et al., Anal Biochem (1985) 151:169-177, (the disclosure of which is incorporated herein by reference). GPIIb-IIIa is coated onto microtiter plates. The coated support is then contacted with fibrinogen and with the test material (e.g., compounds of Formula I) and incubated for a sufficient time to permit maximal binding of fibrinogen to the immobilized GPIIb-IIIa. Fibrinogen is typically provided at a concentration of about 5-50 nM and the test material can, if desired, be added at a series of dilution. Typical incubations are 2 to 4 hours at 25° C., the time and temperature being interdependent.
After incubation, the solution containing the fibrinogen and test material is removed and the level of binding of fibrinogen measured by quantitating bound fibrinogen to GPIIb-IIIa. Any suitable means of detection may be used, but it is convenient to employ labeled fibrinogen, for example using biotinylated labels. Such methods are well known in the art.
Purified platelet GPIIb-IIIa receptor was prepared as described by Fitzgerald, L. A., et al., Anal Biochem (1985) 151:169-177 (1985). Vitronectin receptor was prepared as described by Smith, J. W., J. Biol Chem (1988) 263:18726-18731. After purification, the receptors were stored in 0.1% Triton X-100 at 0.1-1.0 mg/ml.
The receptors were coated to the wells of 96-well flat-bottom ELISA plates (Linbro EIA-Plus microtiter plate, Flow Laboratories) after diluting 1:200 with a solution of 20 mM Tris-HCl, 150 mM NaCl, 1 mM CaCl2, pH 7.4, to reduce the Triton X-100 concentration to below its critical micellar concentration and adding an aliquot of 100 ul to each well. The wells were all allowed to incubate overnight at 4° C., and then aspirated to dryness. Additional sites were blocked by the addition of bovine serum albumin (BSA) at 35 mg/ml in the above buffer for 2 hours at 30° C. to prevent nonspecific binding. The wells were then washed once with binding buffer ([…] Tris-HCl, 100 mM NaCl 2 mM CaCl2, 1 mg/ml BSA).
The corresponding ligands (fibrinogen, von Willebrand Factor, or vitronectin) were conjugated to biotin using commercially available reagents and standard protocols. The labeled ligands were added to the receptor-coated wells at final concentration of 10 nM (100 ul/well) and incubated for 3 hours at 25° C. in the presence or absence of the test samples. After incubation, the wells are aspirated to dryness and bound ligand is quantitated.
The bound protein is detected by the addition of antibiotin antibody conjugated to alkaline phosphatase followed by addition of substrate (p-nitrophenyl phosphate), and determination of the optical density of each well at […]. Decreased color development is observed in wells incubated with test samples which inhibit binding of ligand to receptor.

For assay [2], the system named is human platelet-rich plasma. The experiment in a line: Platelet aggregation assay (Aggregation-Human PRP/ADP). To be noted: 1 min; human platelet-rich plasma incubated with compound 1 minute at 37° C.; ADP-induced aggregation; read-out: Agg: Human PRP/ADP IC50uM. The assay is classed as cell-based. As for the experimental part:
Platelet-rich plasma was prepared from healthy human volunteers for use in determining inhibition of platelet aggregation by the compounds.
Platelet-rich plasma was prepared at room temperature by centrifugation of the citrated whole blood at 100×g for 12 minutes. The platelet rich plasma contained approximately 200-400,000 platelets/μl.
Platelet-poor plasma was prepared by centrifugation of citrated whole blood at 12,000×g for 2 minutes.
Platelet aggregation was assayed in a 4-channel platelet aggregation profiler (PAP-4, Biodata, Hatboro, Pa.) according to the manufacturers directions. Inhibition of platelet aggregation was studied by adding varying amounts of […] to stirred human platelet-rich plasma. Specifically, the human platelet-rich plasma was incubated with the compound being tested for 1 minute at 37° C. prior to the addition of a variety of aggregating agents most often ADP 5 μM, but also 1 μg/ml collagen, 1 μM U46619 and 0.3 μM platelet activating factor.

Where a name gives a salt, the structure may show the parent alone.

For the compound `N=C(N)c1ccc(C(=O)Nc2ccc3c(c2)CCC(OCC(=O)O)C3)cc1` (stereo not drawn) [Example 29], the IC50 in assay [1] amounted to 0.015 µM; in assay [2] it was 0.28 µM.

Take `N=C(N)CCCCCOc1ccc2c(c1)CCC(CC(=O)O)O2` (racemic) [Example 55, rac-(6-(5-(Aminoiminomethyl)pentoxy)-3,4-dihydro-2H-1-benzopyran-2-yl)acetic Acid Trifluoroacetate]: the IC50 in assay [1] was 3.46 µM; in assay [2], > 100 µM.

With `N=C(N)c1ccc(C(=O)Nc2ccc3c(c2)CCC(CC(=O)O)C3=O)c(F)c1` (stereo not drawn) [Example 32], the IC50 came to 0.004 µM in assay [1] and 0.1 µM in assay [2].

Turning to `N=C(N)c1ccc(C#Cc2ccc3c(c2)CCN(CC(=O)O)C3=O)cc1` [Example 2, 6-[[4-(Aminoiminomethyl)phenyl]ethynyl]-3,4-dihydro-1-oxo-2(1H)-isoquinoline Acetic Acid Trifluoroacetate], the IC50 in assay [1] was 0.03 µM; in assay [2], 0.52 µM.

For the compound `O=C(O)CN1CCc2cc(OCCCC3CCNCC3)ccc2C1` [Example 34], the IC50 came to 0.22 µM in assay [1] and 2.3 µM in assay [2].

On to `CCCNC(=N)c1ccc(C(=O)Nc2ccc3c(c2)CCC(CC(=O)O)O3)cc1` (racemic) [Example 82, rac-(3,4-Dihydro-6-(N-(4-((propylamino)iminomethyl)benzoyl)amino)-2H-1-benzopyran-2-yl)acetic Acid], for which the IC50 came to 0.019 µM in assay [1] and 0.12 µM in assay [2].

Regarding `N=C(N)c1ccc(C(=O)Nc2ccc3c(c2)CCC(CC(=O)O)=C3)cc1` [Example 31], the IC50 in assay [1] worked out at 0.016 µM; in assay [2], 15 µM.

With `O=C(O)CC1CCc2cc(NC(=O)/C=C/C3CCNCC3)ccc2O1` (racemic) [Example 78, rac-(3,4-Dihydro-6-(N-(3-(piperidine-4-yl)propenoyl)amino)-2H-1-benzopyran-2-yl)acetic Acid], the values for the IC50 in assay [1] and in assay [2] were 0.02 µM and 0.18 µM, respectively.

As for `N=C(N)c1ccc(COc2ccc3c(c2)CCN(C(CC(=O)O)C(=O)NCc2ccccc2)C3=O)cc1` (racemic) [Example 6, (+−)-6-[[4-(Aminoiminomethyl)phenyl]methoxy]-3,4-dihydro-1-oxo-beta-[[(phenylmethyl)amino]carbonyl]-2(1H)-isoquinoline Propanoic Acid Trifluoroacetate], the figures for the IC50 in assay [1] and in assay [2] were 0.05 µM and 0.7 µM, respectively.

As for `CCCCC(CC(=O)O)N1CCc2cc(OCc3ccc(C(=N)N)cc3)ccc2C1=O` (racemic) [Example 11, (+−)-6-[[4-(Aminoiminomethyl)phenyl]methoxy]-b-butyl-3,4-dihydro-1-oxo-2(1H)-isoquinoline Propanoic Acid Trifluoroacetate], the IC50 is 0.04 µM in assay [1] and 0.6 µM in assay [2].

For the compound `CCOC(=O)CC1CCc2cc(NC(=O)c3ccc(C(=N)N)cc3)ccc2O1` (racemic) [Example 47, Hydrochloride], the IC50 in assay [1] came out at 0.77 µM; in assay [2], 0.24 µM.

For `N=C(N)c1ccc(C(=O)Nc2ccc3c(c2)CCC(CC(=O)O)C3)cc1` (stereo not drawn) [Example 28], the IC50 was 0.005 µM in assay [1] and 0.19 µM in assay [2].

As to `N=C(N)c1ccc(COc2ccc3c(c2)CCC(CC(=O)O)O3)cc1` (racemic) [Example 46, rac-(6-(4-(Aminoiminomethyl)phenylmethoxy)-3,4-dihydro-2H-1-benzopyran-2-yl)acetic Acid Trifluoroacetate], the IC50 is 0.0033 µM in assay [1] and 2.5 µM in assay [2].

In the case of `CCNC(=N)c1ccc(C(=O)Nc2ccc3c(c2)CCC(CC(=O)OCC)O3)cc1` (racemic) [Example 71, Hydrochloride], the IC50 in assay [1] is > 10 µM; in assay [2], 1.5 µM.

Consider `N=C(N)c1ccc(CCc2ccc3c(c2)CCN(CC(=O)O)C3=O)cc1` [Example 3, 6-[2-[4-(Aminoiminomethyl)phenyl]ethyl]-3,4-dihydro-1-oxo-2(1H)-isoquinoline Acetic Acid Trifluoroacetate], for which the results for the IC50 in assay [1] and in assay [2] were 0.11 µM and 1 µM, respectively.

`O=C(O)CNC1CCc2cc(OCCCC3CCNCC3)ccc2C1` (stereo not drawn) [Example 25] returned an IC50 in assay [1] of 0.22 µM.

Regarding `CCOC(=O)CC1CCc2cc(NC(=O)c3ccc(C(=N)NC(=O)OCC)cc3)ccc2O1` (racemic) [Example 68], the IC50 in assay [1] is > 1 µM.

Compound `N=C(N)c1ccc(COc2ccc3c(c2)CCN(C(=O)C(=O)O)C3)cc1` [Example 44] returned an IC50 in assay [1] of 0.16 µM.

`CC(=O)N(CC(=O)O)C1CCc2cc(OCc3ccc(C(=N)N)cc3)ccc2C1` (stereo not drawn) [Example 27] returned an IC50 in assay [1] of 0.11 µM.

As for `N=C(N)c1ccc(COc2ccc3cc(CC(=O)O)ccc3c2)cc1` [Example 33], the IC50 in assay [1] came out at 0.005 µM.

In turn, `N=C(N)c1ccc(COc2ccc3c(c2)CCC(NCC(=O)O)C3)cc1` (stereo not drawn) [Example 26] yielded an IC50 in assay [1] of 0.52 µM.
